Key:
Test in all cases: In-vitro tumor cell proliferation inhibition, MTT
Format in all cases: cell-based, human
[1] = tested on: non-small cell lung carcinoma cell strain H1975 (EGFR L858R/T790M mutation); conditions: 72 hours
Method: (§1) The object of this assay was to test the inventive compounds for the inhibitory activity of in-vitro tumor cell proliferation. The MTT (tetreamethyl-azo-zole-salt) colorimetric method was used in this assay.
(§2) All of the above-mentioned non-small cell lung carcinoma cell strains and the breast carcinoma cell strain BT 474 were cultured with a RPMI-1640 complete culture medium containing 10% fetal bovine serum, 100 U/ml penicillin and 100 μg/ml streptomycin under 5% CO2 and at 37° C. The other cell strains were cultured with a DMEM complete culture medium containing 10% fetal bovine serum (having a MV4-11 cell content of 20%), 100 U/ml penicillin and 100 μg/ml streptomycin under 5% CO2 and 37° C.
(§3) A cell suspension having a cell concentration of 1-2×10^4 cells/ml was treated with a complete cell culture solution to adjust the cell concentration, wherein the cell concentrations for HCC827 and MV4-11 were adjusted to 6×10^4 cells/ml and 1×10^5 cells/ml respectively. The cell suspension was inoculated in a 96-well plate with 200 μl cell suspension/well and cultured overnight. Next day, the supernatant was drawn off and discarded. Then, the cells were treated with the tested compounds in a gradient concentration respectively. In the meanwhile, a negative control group free of the drug substance and an isovolumetric solvent control group (having a DMSO concentration of 1%) were used. The triplicate wells were used for each of dose groups. The culturing was conducted at 37° C. under 5% CO2. After 72 hours, […] having a concentration of 5 mg/ml was added to each of wells. The culturing was further conducted for 2-4 hours. The supernatant was discarded. Then […] was added to each of wells. The contents in the well were mixed homogenously by oscillation for 15 minutes. The absorbance (A) value was measured with a microplate reader at λ=570 nm (the A value is in the direct proportion to the number of living cells) and averaged. The relative cell proliferation inhibitory rate is (A570 control-group−A570 dose-group)/A570 control-group×100%. The assay was repeated for at least three times. The data was expressed as number average. The statistical data were analyzed using t-test. P<0.05 was considered significant. The cell proliferation inhibition of the following compounds was expressed as IC50 or inhibitory rate.

[2] = tested on: non-small cell lung carcinoma cell strain H292 (EGFR WT); conditions: 72 hours
Method: as §1, §2, §3

[3] = tested on: non-small cell lung carcinoma cell strain HCC827; conditions: 72 hours
Method: as §1, §2, §3

[4] = tested on: non-small cell lung carcinoma cell strain PC-9 (EGFR delE746-A750 deletion mutation); conditions: 72 hours
Method: as §1, §2, §3

[5] = tested on: acute myelogenous leukemia cell strain MV4-11; conditions: 72 hours
Excerpt: as §1
(§4) Human non-small cell lung carcinoma cell strains HCC827, PC-9, H1975 (EGFR L858R/T790M mutation) and H292 (EGFR WT), and other tumor type cell strains, including human acute myelogenous leukemia cell strain MV4-11, human chronic granulocytic leukemia cell strain K562, human squamous cell carcinoma cell strain A431, human breast carcinoma cell strains MDA-MB-468 and BT 474, human colon cancer cell strains SW480, HCT116 and SW620, human liver cancer cell strain Hep G2, human gastric cancer cell strain MK-45, and human malignant melanoma cell strain A375 used in this assay were all purchased from ATCC company, USA and kept in the laboratory. All of the above-mentioned non-small cell lung carcinoma cell strains and the breast carcinoma cell strain BT 474 were cultured with a RPMI-1640 complete culture medium containing 10% fetal bovine serum, 100 U/ml penicillin and 100 μg/ml streptomycin under 5% CO2 and at 37° C. The other cell strains were cultured with a DMEM complete culture medium containing 10% fetal bovine serum (having a MV4-11 cell content of 20%), 100 U/ml penicillin and 100 μg/ml streptomycin under 5% CO2 and 37° C.
as §3

[6] = tested on: breast carcinoma cell strain BT474; conditions: 72 hours
Excerpt: as §1, §4, §3

[7] = tested on: breast carcinoma cell strain MDA-MB-468; conditions: 72 hours
Excerpt: as §1, §4, §3

[8] = tested on: chronic granulocytic leukemia cell strain K562; conditions: 72 hours
Excerpt: as §1, §4, §3

[9] = tested on: colon cancer cell strain HCT116; conditions: 72 hours
Excerpt: as §1, §4, §3

[10] = tested on: colon cancer cell strain SW480; conditions: 72 hours
Excerpt: as §1, §4, §3

[11] = tested on: colon cancer cell strain SW620; conditions: 72 hours
Excerpt: as §1, §4, §3

[12] = tested on: gastric cancer cell strain MK-45; conditions: 72 hours, read-out: MK45 (IC50)
Excerpt: as §1, §4, §3

[13] = tested on: liver cancer cell strain Hep G2; conditions: 72 hours, read-out: HEPG2 (IC50)
Excerpt: as §1, §4, §3

[14] = tested on: malignant melanoma cell strain A375; conditions: 72 hours
Excerpt: as §1, §4, §3

[15] = tested on: squamous cell carcinoma cell strain A431; conditions: 72 hours
Excerpt: as §1, §4, §3

`CN1CCN(c2ccc(Nc3ncc4nc(Nc5cccc([N+](=O)[O-])c5)n(C5CCCC5)c4n3)cc2)CC1` [Compounds 8-44] gave an IC50 [1] of 695 nM, an IC50 [2] of 2.9 nM and an IC50 [3] of 0.3 nM. It also gave an IC50 [4] of 1.5 nM, an IC50 [5] of 1140 nM and an IC50 [6] of 682 nM. It also gave an IC50 [7] of 2670 nM, an IC50 [8] of 96.5 nM and an IC50 [9] of over 10 µM. For the same compound, the IC50 [10] was 6.16 µM, the IC50 [11] was 2.51 µM and the IC50 [12] was 1350 nM. The IC50 [13] was over 10 µM, the IC50 [14] was 1740 nM and the IC50 [15] was 409 nM.
For `CN1CCN(c2ccc(Nc3ncc4nc(Nc5ccc(F)c(Cl)c5)n(C5CCCC5)c4n3)cc2)CC1` [Compounds 8-35], the IC50 [1] was 1520 nM, the IC50 [2] was 20.3 nM and the IC50 [3] was 0.2 nM. The IC50 [4] was 1.5 nM, the IC50 [5] was 135 nM and the IC50 [6] was 192 nM. For the same compound, the IC50 [7] was 1920 nM, the IC50 [8] was 232 nM and the IC50 [9] was 0.676 µM. It also gave an IC50 [10] of 5.93 µM, an IC50 [11] of 2.3 µM and an IC50 [12] of 1110 nM. It also gave an IC50 [13] of 4.34 µM, an IC50 [14] of 3250 nM and an IC50 [15] of 635 nM.
Work on `c1ccc(Nc2nc3cnc(Nc4ccc(CN5CCOCC5)cc4)nc3n2C2CCCC2)cc1` [Compounds 8-48] yielded an IC50 [1] of 4580 nM, an IC50 [2] of 18.5 nM and an IC50 [3] of 0.2 nM. For the same compound, the IC50 [4] was 26.2 nM, the IC50 [5] was 583 nM and the IC50 [6] was 525 nM. The IC50 [7] was 2130 nM, the IC50 [8] was 230 nM and the IC50 [9] was over 10 µM. The IC50 [10] was 9.89 µM, the IC50 [11] was 2.94 µM and the IC50 [12] was 297 nM. For the same compound, the IC50 [13] was over 10 µM, the IC50 [14] was 2080 nM and the IC50 [15] was 788 nM.
`CN1CCN(c2ccc(Nc3ncc4nc(NCc5ccccc5)n(C5CCCC5)c4n3)cc2)CC1` [Compounds 8-45] gave an IC50 [1] of 1140 nM, an IC50 [2] of 13.9 nM and an IC50 [3] of 0.2 nM. The IC50 [4] was 9.7 nM, the IC50 [5] was 59.4 nM and the IC50 [6] was 870 nM. The IC50 [7] was 2870 nM, the IC50 [8] was 218 nM and the IC50 [9] was 7.08 µM. It also gave an IC50 [10] of 7.75 µM, an IC50 [11] of 4.97 µM and an IC50 [12] of 3740 nM. For the same compound, the IC50 [13] was over 10 µM, the IC50 [14] was 9260 nM and the IC50 [15] was 1890 nM.
`CN1CCN(c2ccc(Nc3ncc4nc(Nc5ccc(Br)cc5)n(C5CCCC5)c4n3)cc2)CC1` [Compounds 8-43] was tested, and the IC50 [1] was 231 nM, the IC50 [2] was 102 nM and the IC50 [3] was 0.3 nM. For the same compound, the IC50 [4] was 51.9 nM, the IC50 [5] was 21.2 nM and the IC50 [6] was 1830 nM. For the same compound, the IC50 [7] was 1030 nM, the IC50 [8] was 122 nM and the IC50 [9] was 2.57 µM. It also gave an IC50 [10] of 5.75 µM, an IC50 [11] of 5.75 µM and an IC50 [12] of 234 nM. The IC50 [13] was 5.93 µM, the IC50 [14] was 1910 nM and the IC50 [15] was 484 nM.
`CN1CCN(NC(=O)c2ccc(Nc3ncc4nc(Nc5cccnc5)n(C5CCCC5)c4n3)cc2)CC1` [Compounds 8-37] gave an IC50 [1] of over 10000 nM, an IC50 [2] of 5850 nM and an IC50 [3] of 130 nM. The IC50 [4] was 348 nM, the IC50 [5] was 102 nM and the IC50 [6] was 4520 nM. For the same compound, the IC50 [7] was over 10000 nM, the IC50 [8] was 888 nM and the IC50 [9] was over 10 µM. The IC50 [10] was over 10 µM, the IC50 [11] was over 10 µM and the IC50 [12] was over 10000 nM. The IC50 [13] was over 10 µM, the IC50 [14] was over 10000 nM and the IC50 [15] was over 10000 nM.
With `CN1CCN(c2ccc(Nc3ncc4nc(Nc5cc(Cl)cc(Cl)c5)n(C5CCCC5)c4n3)cc2)CC1` [Compounds 8-54] the IC50 [1] was 1700 nM, the IC50 [2] was 279 nM and the IC50 [3] was 6.3 nM. The IC50 [4] was 204 nM, the IC50 [5] was 1070 nM and the IC50 [6] was 3960 nM. It also gave an IC50 [7] of 3350 nM, an IC50 [8] of 863 nM and an IC50 [9] of 6.96 µM. It also gave an IC50 [10] of 6.73 µM, an IC50 [11] of 6.64 µM and an IC50 [12] of 688 nM. For the same compound, the IC50 [13] was 5.98 µM, the IC50 [14] was 5580 nM and the IC50 [15] was 2060 nM.
`CN1CCN(c2ccc(Nc3ncc4nc(Nc5ccc(Br)cc5F)n(C5CCCC5)c4n3)cc2)CC1` [Compounds 8-47] was tested, and the IC50 [1] was 884 nM, the IC50 [2] was 44.2 nM and the IC50 [3] was 0.3 nM. The IC50 [4] was 16.3 nM, the IC50 [5] was 224 nM and the IC50 [6] was 554 nM. For the same compound, the IC50 [7] was 3190 nM, the IC50 [8] was 97.2 nM and the IC50 [9] was 6.09 µM. It also gave an IC50 [10] of 5.53 µM, an IC50 [11] of 4.95 µM and an IC50 [12] of 1180 nM. For the same compound, the IC50 [13] was 8.46 µM, the IC50 [14] was 1570 nM and the IC50 [15] was 299 nM.
